# Measurements taken from patent US20160045687A1, “NASAL ADMINISTRATION” (OPTINOSE AS, priority 2013, published 2016).
# Where a name gives a salt, the structure may show the parent alone. Read-outs that look alike come from different tables or passages of the source.
# What was measured:
# [1] = cited from earlier work
# episodic migraine = conditions: continuous carbon dioxide infusion; cited from earlier work
# [2] = tested on: cultured rat trigeminal ganglion cells; conditions: carbon dioxide treatment of cultures under isohydric conditions; cited from earlier work
# [3] = tested on: chronic rhinosinusitis (CRS) with nasal polyps; experiment: Example #10: 3-month placebo controlled study of fluticasone with Breath Powered liquid device; assay type: in vivo, human
# [4] = tested on: post-surgical recalcitrant CRS without polyps; experiment: Example #11: placebo controlled study of fluticasone with Breath Powered liquid device; assay type: in vivo, human; conditions: 12 weeks
# Procedure: Using the same drug-device combination product as Example #10, a small placebo controlled study (N=20) was performed in patients with post-surgical recalcitrant CRS without polyps, producing clinically significant improvements on both objective measures and subjective symptoms.
# [5] = Fluticasone bioavailability at higher Breath Powered doses; assay type: in vivo, human; conditions: 400 ug or 800 ug twice daily as compared to 200 ug daily conventionally
# single migraine attack = experiment: Example #1: headache relief after 16 mg intranasal Breath Powered sumatriptan vs 100 mg oral sumatriptan; assay type: in vivo, human
# From the text: The purpose of this study was to study the onset of headache relief following a dose of sumatriptan. The study population included 436 subjects.
# Headache relief is defined as a reduction from moderate (grade 2) or severe (grade 3) to none (grade 0) or mild (grade 1) pain.
# [6] = Example #3: sumatriptan PK in nitroglycerin (GTN)-induced migraine vs healthy subjects; conditions: human, in vivo, Breath Powered device
# migraine headaches = experiment: Examples #4/#7: double-blind crossover head-to-head study, Breath Powered sumatriptan vs 100 mg tablet, blinded pooled data; assay type: in vivo, human; conditions: 16 mg nasal with placebo tablet; scenario inferred from blinded data
# Procedure: The study is a cross-over design where each patient enrolled will treat headaches with each of the treatments. Specifically, patients will treat up to 5 headaches with a treatment and then cross over to treat up to 5 headaches with the other. With each headache, the patient uses the device and takes a tablet, only one of which will be active. From data on over 400 headaches, as yet unblinded, the results obtained at the 30 min timepoint (headache relief 30 minutes after taking medication) for moderate or severe headaches is 54%.
# One set of data include blinded head-to-head (H2H) results. They generally show a high response rate In blinded data, i.e., a reduction from severe/moderate migraine or mild or none.
smiles,measurement,setting,value
"CN1C[C@H](C(=O)N[C@]2(C)O[C@@]3(O)[C@@H]4CCCN4C(=O)[C@H](Cc4ccccc4)N3C2=O)C[C@@H]2c3cccc4[nH]cc(c34)C[C@H]21 [DHE, dihydroergotamine mesylate]",bioavailability,[1]; administered intranasally,~40%
same,bioavailability,[1]; given orally,less than 1%
O=C=O [carbon dioxide],2-hour pain free response,episodic migraine,25.0%
same,effect on CGRP secretion,[2],"significantly repressed the stimulatory effects of KCI, capsaicin, and nitric oxide on CGRP secretion"
C[C@@H]1C[C@H]2[C@@H]3C[C@H](F)C4=CC(=O)C=C[C@]4(C)[C@@]3(F)[C@@H](O)C[C@]2(C)[C@@]1(O)C(=O)SCF [fluticasone],tolerability,"[3]; 400 μg b.i.d., 3 months",well tolerated
same,subjects with complete elimination of the polyps,"[3]; 400 μg b.i.d., after 3 months",~20%
same,proportion of subjects with improvement in summed polyp score,[3]; 4 weeks,22%
same,proportion of subjects with improvement in summed polyp score,[3]; 8 weeks,43%
same,proportion of subjects with improvement in summed polyp score,[3]; 12 weeks,57%
same,change in polyp score,[3]; after 12 weeks,−0.98
same,summed polyp score,"[3]; after 12 weeks, baseline 2.8",1.8
same,endoscopy score for edema (median scores),[4],−4.0
same,bioavailability,[5],no significantly greater bioavailability
CNS(=O)(=O)Cc1ccc2[nH]cc(CCN(C)C)c2c1 [sumatriptan],response rate (headache relief) at 30 minutes,single migraine attack; 16 mg of sumatriptan in the Breath Powered device and oral tablet placebo,67%
same,response rate (headache relief) at 30 minutes,single migraine attack; 100 mg of sumatriptan orally with the placebo device,39%
same,bioavailability,"[6]; other: intranasal powder, 7.5 mg delivered to the side of the migraine during a GTN attack in migraineurs",27%
same,Cmax,"[6]; other: intranasal, 7.5 mg",11 ng/mL
same,suggested response rate at 30 minutes,migraine headaches,70%
CN(C)CCc1c[nH]c2ccc(C[C@H]3COC(=O)N3)cc12 [zolmitriptan],nasal fraction of the total absorption,[1]; conventional nasal spray,approximately 30%
